Biological target: KRas (Homo sapiens, UniProt P01116, G12C)
Test: KRas degradation in NCI-H2030 cells by Western blot, normalized to GAPDH (data of Table 14)
Format: cell-based
Parameters: host or cells: NCI-H2030
Details: for Percent Degradation at Indicated Concentration (μM): H2030; for Dmax: NCI-H2030
In short: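 Degradation of endogenous homozygous G12C KRas is measured by immunoblot after serum starvation and compound exposure at three final concentrations (0.3, 1 and 3 μM). VHL-recruiting compounds are incubated 24 h and all others 72 h. Percent loss is calculated from GAPDH-normalized KRas relative to vehicle.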

| Structure (SMILES) | Percent Degradation at Indicated Concentration (μM) (0.3 μM) | Percent Degradation at Indicated Concentration (μM) (1 μM) | Percent Degradation at Indicated Concentration (μM) (3 μM) | Dmax | Percent Degradation at Indicated Concentration (μM): 0.3 (H2030 cells, 0.3 μM) | Percent Degradation at Indicated Concentration (μM): 1 (H2030 cells, 1 μM) | Percent Degradation at Indicated Concentration (μM): 3 (H2030 cells, 3 μM) | Dmax (H2030 cells) |
| --- | --- | --- | --- | --- | --- | --- | --- | --- |
| C=CC(=O)N1CCN(c2nc(NCCC(=O)N(C)CCOCCOCCOCCOc3ccc(-c4csc([C@@H]5CCCN5C(=O)[C@@H](NC(=O)[C@H](C)NC)C5CCCCC5)n4)c4ccccc34)nc3c(F)c(-c4cc(O)cc5ccccc45)c(Cl)cc23)CC1 [compound 273, 3-((4-(4-acryloylpiperazin-1-yl)-6-chloro-8-fluoro-7-(3-hydroxynaphthalen-1-yl)quinazolin-2-yl)amino)-N-(2-(2-(2-(2-((4-(2-((S)-1-((S)-2-cyclohexyl-2-((S)-2-(methylamino)propan-amido)acetyl)pyrrolidin-2-yl)thiazol-4-yl)naphthalen-1-yl)oxy)ethoxy)ethoxy)eth-oxy)ethyl)-N-methylpropanamide] | C (Percent Degradation: C ≤ 35) | C (Percent Degradation: C ≤ 35) | C (Percent Degradation: C ≤ 35) | ≤ 35% |  |  |  |  |
| C=CC(=O)N1CCN(c2nc(NCCC(=O)N(C)CCOCCOCCNC(=O)c3ccc(NC(=O)[C@@H]4N[C@@H](CC(C)(C)C)[C@](C#N)(c5ccc(Cl)cc5F)[C@H]4c4cccc(Cl)c4F)c(OC)c3)nc3c(F)c(-c4cc(O)cc5ccccc45)c(Cl)cc23)CC1 [compound 302, (2R,3S,4R,5S)-N-(4-((2-(2-(2-(3-((4-(4-acryloylpiperazin-1-yl)-6-chloro-8-fluoro-7-(3-hydroxynaphthalen-1-yl)quinazolin-2-yl)amino)-N-methylpropanamido)ethoxy)eth-oxy)ethyl)carbamoyl)-2-methoxyphenyl)-3-(3-chloro-2-fluorophenyl)-4-(4-chloro-2-fluorophenyl)-4-cyano-5-neopentylpyrrolidine-2-carboxamide] | C (Percent Degradation: C ≤ 35) | C (Percent Degradation: C ≤ 35) | C (Percent Degradation: C ≤ 35) | ≤ 35% |  |  |  |  |
| C=CC(=O)N1CCN(c2nc(NCCC(=O)N(C)CCOCCOCCOCCNC(=O)c3ccc(NC(=O)[C@@H]4N[C@@H](CC(C)(C)C)[C@](C#N)(c5ccc(Cl)cc5F)[C@H]4c4cccc(Cl)c4F)c(OC)c3)nc3c(F)c(-c4cc(O)cc5ccccc45)c(Cl)cc23)CC1 [compound 303, (2R,3S,4R,5S)-N-(4-((15-((4-(4-acryloylpiperazin-1-yl)-6-chloro-8-fluoro-7-(3-hydroxynaphthalen-1-yl)quinazolin-2-yl)amino)-12-methyl-13-oxo-3,6,9-trioxa-12-azapentadecyl)carbamoyl)-2-methoxyphenyl)-3-(3-chloro-2-fluorophenyl)-4-(4-chloro-2-fluorophenyl)-4-cyano-5-neopentylpyrrolidine-2-carboxamide] | C (Percent Degradation: C ≤ 35) | C (Percent Degradation: C ≤ 35) | C (Percent Degradation: C ≤ 35) | ≤ 35% |  |  |  |  |
| C=CC(=O)N1CCN(c2nc(NCCC(=O)N(C)CCOCCOCCOCCOCCNC(=O)c3ccc(NC(=O)[C@@H]4N[C@@H](CC(C)(C)C)[C@](C#N)(c5ccc(Cl)cc5F)[C@H]4c4cccc(Cl)c4F)c(OC)c3)nc3c(F)c(-c4cc(O)cc5ccccc45)c(Cl)cc23)CC1 [compound 304, (2R,3S,4R,5S)-N-(4-((18-((4-(4-acryloylpiperazin-1-yl)-6-chloro-8-fluoro-7-(3-hydroxynaphthalen-1-yl)quinazolin-2-yl)amino)-15-methyl-16-oxo-3,6,9,12-tetraoxa-15-azaoctadecyl)carbamoyl)-2-methoxyphenyl)-3-(3-chloro-2-fluorophenyl)-4-(4-chloro-2-fluorophenyl)-4-cyano-5-neopentylpyrrolidine-2-carboxamide] | C (Percent Degradation: C ≤ 35) | C (Percent Degradation: C ≤ 35) | C (Percent Degradation: C ≤ 35) | ≤ 35% |  |  |  |  |
| CCC(=O)N1CCN(c2nc(NCCC(=O)N(C)CCOCCOc3cc(-c4scnc4C)ccc3CNC(=O)[C@@H]3C[C@@H](O)CN3C(=O)[C@@H](c3cc(C)no3)C(C)C)nc3c(F)c(-c4cc(O)cc5ccccc45)c(Cl)cc23)CC1 [compound 330, (2S,4R)-N-(2-(2-(2-(3-((6-chloro-8-fluoro-7-(3-hydroxynaphthalen-1-yl)-4-(4-propionylpiperazin-1-yl)quinazolin-2-yl)amino)-N-methylpropanamido)ethoxy)ethoxy)-4-(4-methylthiazol-5-yl)benzyl)-4-hydroxy-1-((R)-3-methyl-2-(3-methylisoxazol-5-yl)butanoyl)pyrrolidine-2-carboxamide] |  |  |  |  | C (C ≤ 35) | C (C ≤ 35) | C (C ≤ 35) | ≤ 35% |
| CCC(=O)N1CCN(c2nc(NCCC(=O)N(C)CCOCCOc3cc(-c4scnc4C)ccc3CNC(=O)[C@@H]3C[C@@H](O)CN3C(=O)[C@H](c3cc(C)no3)C(C)C)nc3c(F)c(-c4cc(O)cc5ccccc45)c(Cl)cc23)CC1 [compound 331, (2S,4R)-N-(2-(2-(2-(3-((6-chloro-8-fluoro-7-(3-hydroxynaphthalen-1-yl)-4-(4-propionylpiperazin-1-yl)quinazolin-2-yl)amino)-N-methylpropanamido)ethoxy)ethoxy)-4-(4-methylthiazol-5-yl)benzyl)-4-hydroxy-1-((S)-3-methyl-2-(3-methylisoxazol-5-yl)butanoyl)pyrrolidine-2-carboxamide] |  |  |  |  | C (C ≤ 35) | C (C ≤ 35) | C (C ≤ 35) | ≤ 35% |
| CCC(=O)N1CCN(c2nc(NCCC(=O)N(C)CCOCCOCCOc3cc(-c4scnc4C)ccc3CNC(=O)[C@@H]3C[C@@H](O)CN3C(=O)[C@@H](c3cc(C)no3)C(C)C)nc3c(F)c(-c4cc(O)cc5ccccc45)c(Cl)cc23)CC1 [compound 332, (2S,4R)-N-(2-(2-(2-(2-(3-((6-chloro-8-fluoro-7-(3-hydroxynaphthalen-1-yl)-4-(4-propionylpiperazin-1-yl)quinazolin-2-yl)amino)-N-methylpropanamido)ethoxy)ethoxy)-ethoxy)-4-(4-methylthiazol-5-yl)benzyl)-4-hydroxy-1-((R)-3-methyl-2-(3-methylisoxazol-5-yl)butanoyl)pyrrolidine-2-carboxamide] |  |  |  |  | C (C ≤ 35) | C (C ≤ 35) | C (C ≤ 35) | ≤ 35% |
| CCC(=O)N1CCN(c2nc(NCCC(=O)N(C)CCOCCOCCOc3cc(-c4scnc4C)ccc3CNC(=O)[C@@H]3C[C@@H](O)CN3C(=O)[C@H](c3cc(C)no3)C(C)C)nc3c(F)c(-c4cc(O)cc5ccccc45)c(Cl)cc23)CC1 [compound 333, (2S,4R)-N-(2-(2-(2-(2-(3-((6-chloro-8-fluoro-7-(3-hydroxynaphthalen-1-yl)-4-(4-propionylpiperazin-1-yl)quinazolin-2-yl)amino)-N-methylpropanamido)ethoxy)ethoxy)ethoxy)-4-(4-methylthiazol-5-yl)benzyl)-4-hydroxy-1-((S)-3-methyl-2-(3-methylisoxazol-5-yl)butanoyl)pyrrolidine-2-carboxamide] |  |  |  |  | C (C ≤ 35) | C (C ≤ 35) | C (C ≤ 35) | ≤ 35% |
| CCC(=O)N1CCN(c2nc(NCCC(=O)N(C)CCOCCOCCOCCOc3cc(-c4scnc4C)ccc3CNC(=O)[C@@H]3C[C@@H](O)CN3C(=O)[C@@H](c3cc(C)no3)C(C)C)nc3c(F)c(-c4cc(O)cc5ccccc45)c(Cl)cc23)CC1 [compound 334, (2S,4R)-N-(2-((15-((6-chloro-8-fluoro-7-(3-hydroxynaphthalen-1-yl)-4-(4-propionylpiperazin-1-yl)quinazolin-2-yl)amino)-12-methyl-13-oxo-3,6,9-trioxa-12-azapentadecyl)oxy)-4-(4-methylthiazol-5-yl)benzyl)-4-hydroxy-1-((R)-3-methyl-2-(3-methylisoxazol-5-yl)butanoyl)pyrrolidine-2-carboxamide] |  |  |  |  | C (C ≤ 35) | C (C ≤ 35) | C (C ≤ 35) | ≤ 35% |
| CCC(=O)N1CCN(c2nc(NCCC(=O)N(C)CCOCCOCCOCCOc3cc(-c4scnc4C)ccc3CNC(=O)[C@@H]3C[C@@H](O)CN3C(=O)[C@H](c3cc(C)no3)C(C)C)nc3c(F)c(-c4cc(O)cc5ccccc45)c(Cl)cc23)CC1 [compound 335, (2S,4R)-N-(2-((15-((6-chloro-8-fluoro-7-(3-hydroxynaphthalen-1-yl)-4-(4-propionylpiperazin-1-yl)quinazolin-2-yl)amino)-12-methyl-13-oxo-3,6,9-trioxa-12-azapentadecyl)oxy)-4-(4-methylthiazol-5-yl)benzyl)-4-hydroxy-1-((S)-3-methyl-2-(3-methylisoxazol-5-yl)butanoyl)pyrrolidine-2-carboxamide] |  |  |  |  | C (C ≤ 35) | C (C ≤ 35) | C (C ≤ 35) | ≤ 35% |
